≈ marks a conversion by molar mass, not a printed value.
What was measured:
L1210 cells = assay: Cytotoxic activity against L1210 cells; type: cell-based; settings: Mus musculus; L1210 cells, 48 hours, 37° C.; read-out: ED50, cytotoxic activity against L1210
Method: To obtain L1210 cells in a logarithmic phase for cytotoxic activity test, in a 250 ml Erlenmeyer flask with a screw cap including Fisher medium warmed to 36° to 37° C. L1210 cells were adjusted to a concentration of 2-3×10^5 cells/ml and then cultured, before 24 hours from the beginning of experiment. Then, the culture solution thus obtained was suspended to prepare a L1210 cell suspension having a concentration of about 0.8-1.0×10^6 cells/ml. Test sample was dissoved in ethanol or dimethylsulfoxide in a certain concentration just before the experiment. 0.1 ml of the sample solution was diluted 10 times with 0.9 ml of a fresh medium. To each screw-capped test tube were added 100, 50, 25 μl, respectively, of the sample dilutions and then added 5 ml of the cell suspension (5×10^4 cells/ml) prepared above to use as the test group. To the test tubes for the control group (2√n: n=number of the samples), only 5 ml of the cell suspension was added. All test tubes were cultured for 48 hours in a CO2 incubator at 37° C. and then the number of cells was counted using a haemacytometer.
(§1) The ED50 value is defined as a concentration (μg/ml) of the sample which inhibits the growth of cancer cells by 50% of the control group and determined according to a method described in NIC's mannual (NIC=National Cancer Institue, U.S.A.). The growth rate Y(%) of cells in the presence of the test sample in each concentration was calculated according to the followign equation: […]
(§2) In the above equation, T means the average cell number per ml in the test group after incubation for 48 hours in the presence of the test samples in each concentration, C means the average cell number per ml in the control group after incubation for 48 hours, and Co means the average cell number per ml in the control group at the beginning of incubation. The Y(%) value at each concentration and log10 value of each concentration were obtained and the regression curve was constructed according to the following equation from those obtained values. In this case, when all the Y(%) value obtained at each concentration is greater than 55% or lower than 45%, the experiment was repeatedly conducted.
(§3) To construct the regression curve Y=A+BX the values A and B were obtained using the following equation. [formula]
(§4) In the above, the value N is the number of selected points which is greater than 2 and lower than, or identical with, the number of cencentration of the test sample, Xi is log(concentration) i, and Yi is the growth ratio at (concentration)i. The value of ED50 was obtained for those obtained slope and intercept.

A549 cancer cells = assay: Cytotoxic activity against A549 cancer cells (sulforhodamin B method); type: cell-based; settings: Homo sapiens; A549 cells, SRB method, 48 hours; read-out: ED50, cytotoxic activity against A549
Method: The cytotoxic activity against A549 cancer cells was determined using a method for measuring sulforhodamin B (SRB), which was developed in the year 1989 by NIC for measuring anticancer activity of the drug in vitro. For the experiment, cells under subculturing were separated from the attached surface with trypsin-CDTA solution and then dispensed into a 24-well flat-bottom microplate (Falcon) so that the number of cells per well is 8×10^4 (A549). The microplate was incubated in a CO2 incubator for 24 hours to attach the dispensed cells to bottom. The medium was removed with aspirator. Then, 100 μl of the solution of the test compounds diluted in a log-dose of 6 kinds of concentration was added to each well containing cells, in a multiple of 3. The microplate was incubated for further 48 hours. In addition, the diluted solution of the test compounds above was filtered through a 0.22 μm filter, before addition to the cells, to keep the experiment under sterilized condition. The cells were incubated with the test compounds for 48 hours and then the medium was removed from each well. 100 μl of 10% trichloroacetic acid (TCA) was added to each well and then the plate was allowed to stand at 4° C. for one hour to fix the cells to the bottom of plate. After fixing the cells, the plate was washed 5 to 6 times with water to completely remove any remaining TCA solution and then dried at room temperature until water is no longer present. To the completely dried plate was added the dying solution of 0.4% SRB dissolved in 1% acetic acid in an amount of 250 μl per well to stain the cells for 30 minutes and then the plate was washed again 5 to 6 times with 1% acetic acid solution to remove the remaining SRB which is not bound to the cells. The stained cell plate was dried again at room temperature. Then, the dying solution was carefully dissolved in a certain amount of 10 mM Tris so that the O.D. value in the control group at 520 nm is 0.8-1.0 Å (optical density), and the optical density at 520nm was determined. The ED50 value was obtained from the determined optical density. To calculate the activity of the drug against cancer cells, the number of cells (Tz) at the beginning of the addition of drug, the number of cells (C) after incubation with the medium in the absence of drug for 48 hours and the number of cells (T) after incubation in the presence of drugs at each concentration for 48 hours were determined.
The anticancer activity of the test compounds was determined form the following equations. Specifically, in the […] the equation (T-Tz)/(C-Tz)×100 was used and in the case of Tz<T the equation (T-Tz)/Tz×100 was used. Then the IC50 value wich is the concentration of drug which inhibits the growth of cancer cells by 50% was calcualted from the above calculated values using a data regressive function of LOTUS programme and the cytotoxic activities of the test compounds were compared with each other.

K-562 cells = assay: Cytotoxic activity against K-562 cells; type: cell-based; settings: Homo sapiens; K562 cells, 48 hours, 37° C.; read-out: ED50, cytotoxic activity against K562
Method: As in the test for the cytotoxic activity against L1210 cells, the test samples were dissoved in ethanol or dimethylsulfoxide in a certain concentration. 0.1 ml of the sample solution was mixed with 0.9 ml of a fresh medium to prepare the dilutions. To each two test tubes having a screw cap were added 100, 50, 25 μl, respectively, of the sample dilutions by means of a micropipet. To each test tube for the test group and the control group (2√n: n=number of the samples) was added 5 ml of the dilutions of HL-60 cells and K-562 cells which were cultured and activated before 24 hours from the beginning of experiment and then diluted in a concentration of 1×10^5 cells/mi. All test tubes were cultured for 48 hours in a CO2 incubator at 37° C. and then the number of cells was counted using a haemacytometer.
as §1, §2, §3, §4

S-180 sarcoma cells = assay: Animal experiment using Sarcoma S-180 cells (survival of mouse); type: in vivo, male ICR mouse; settings: ip, S-180 ICR mouse, comparative drug, 0.5 mg/kg/day (1.2 μmole)
Method: In this experiment, healthy male ICR mouse weighing 20 to 25 g were used as test animal and were fed with water and feed without any restriction in the chamber controlled at the temperature of 23° to 24° C. As the feed, the antibiotic-free feed for mouse was used.
S-180 cells which were incubated for 7 days within abdominal cavity of ICR mouse were separated together with ascites. To the separated cells was added sterilized cold physiological saline and the mixture was centrifuged with 400×g for 2 minutes to separate the cell precipitate. The separated cell precipitate was suspended again in sterilized cold physiological saline and then centrifuged to remove the supernatant. Only S-180 cells were taken, excluding any red bllod cells incorporated therein, washed three times with the same method as above, and then suspended to obtain the cell suspension in concentration of 10^7 cells/ml by counting the number of cells with a haemacytometer. Each 0.1 ml of this cell suspension was transplanted in an abdominal cavity.
After 24 hours from the transplantation, mouse were divided so that each group contains 8 to 9 mouse. The test sample was dissolved in a predetermined amount of dimethylsulfoxide to prepare the stock solution which was stored at 4° C. 30 μl of the stock solution was taken and then mixed with 1.5 ml of physiological saline. 0.1 ml of this mixture was intraperitoneally injected to the test animal. To the control group, 2% dimethylsulfoxide-physiological saline solution was injected. Meanwhile, doxorubicin which is used as the comparative drug was dissolved in 2% dimethylsulfoxide-physiological saline solution and then injected in an amount of 0.5 mg(titer)/kg. The schedule for injection comprises a total of 7 to 8 injections in the manner that after the transplantation of cancer cells 0.1 ml of the test sample per a day is administered for 2 to 4 days followed by the rest for one day. The survival rate was calculated on the basis of the date on which all of one control group is died (approximately 18 to 20 days). The survival rate (T/C, %) was calculated by the following equation as proposed in NIC's protocol: [formula]

SMILES	IC50 (L1210 cells) [µg/mL]	IC50 (A549 cancer cells) [µg/mL]	IC50 (K-562 cells) [µg/mL]	responders at 0.5 mg/kg/day (S-180 sarcoma cells; 1200 h, read-out: Number of mouse survived for 50 days (converted)) [%]	response vs control in vivo at 0.5 mg/kg/day (S-180 sarcoma cells; read-out: T/C) [%]
CCCCCCCCCCCCC(OC(=O)CCC)C1=CC(=O)c2c(O)ccc(O)c2C1=O (centres unmarked) [2-(1-butanoyloxytridecyl)-5,8-dihydroxy-1,4-naphthoquinone]	0.6 (≈ 1.31 µM)	> 20	2.7 (≈ 5.89 µM)	–	–
CCCCCCCCCCCCOC(CCC(C)C)C1=CC(=O)c2c(O)ccc(O)c2C1=O (centres unmarked) [2-(1-dodecyloxy-4-methylpentyl)-5,8-dihydroxy-1,4-naphthoquinone]	> 20	> 20	> 20	–	–
CCCCCCCCCCCCOC(CCC(C)C)C1=CC(=O)c2c(OC)ccc(OC)c2C1=O (centres unmarked) [2-(1-dodecyloxy-4-methylpentyl)-5,8-dimethoxy-1,4-naphthoquinone]	6.3 (≈ 12.9 µM)	4.8 (≈ 9.86 µM)	3.7 (≈ 7.6 µM)	–	–
CCOC(CCC(C)C)C1=CC(=O)c2c(OC)ccc(OC)c2C1=O (centres unmarked) [2-(1-ethoxy-4-methylpentyl)-5,8-dimethoxy-1,4-naphthoquinone]	0.01 (≈ 0.0289 µM)	3 (≈ 8.66 µM)	1.5 (≈ 4.33 µM)	–	–
CCCCCCCOC(CCC(C)C)C1=CC(=O)c2c(O)ccc(O)c2C1=O (centres unmarked) [2-(1-heptyloxy-4-methylpentyl)-5,8-dihydroxy-1,4-naphthoquinone]	0.8 (≈ 2.06 µM)	2.4 (≈ 6.18 µM)	0.2 (≈ 0.515 µM)	–	–
CCCCCCCOC(CCC(C)C)C1=CC(=O)c2c(OC)ccc(OC)c2C1=O (centres unmarked) [2-(1-heptyloxy-4-methylpentyl)-5,8-dimethoxy-1,4-naphthoquinone]	3.1 (≈ 7.44 µM)	4.7 (≈ 11.3 µM)	6.4 (≈ 15.4 µM)	–	–
CCCCCCCCCC(OC(=O)CCCCC)C1=CC(=O)c2c(O)ccc(O)c2C1=O (centres unmarked) [2-(1-hexanoyloxydecyl)-5,8-dihydroxy-1,4-naphthoquinone]	0.5 (≈ 1.12 µM)	13 (≈ 29.2 µM)	1.1 (≈ 2.47 µM)	–	–
CCCCCCCCCCCCC(OC(=O)CCCCC)C1=CC(=O)c2c(O)ccc(O)c2C1=O (centres unmarked) [2-(1-hexanoyloxytridecyl)-5,8-dihydroxy-1,4-naphthoquinone]	1.5 (≈ 3.08 µM)	> 20	> 20	–	–
CCCCCCCCCC(O)C1=CC(=O)c2c(O)ccc(O)c2C1=O (centres unmarked) [2-(1-hydroxydecyl)-5,8-dihydroxy-1,4-naphthoquinone]	0.1 (≈ 0.289 µM)	0.5 (≈ 1.44 µM)	0.3 (≈ 0.866 µM)	–	–
CCCCCCCCCC(O)C1=CC(=O)c2c(OC)ccc(OC)c2C1=O (centres unmarked) [2-(1-hydroxydecyl)-5,8-dimethoxy-1,4-naphthoquinone]	1.4 (≈ 3.74 µM)	9.2 (≈ 24.6 µM)	1.6 (≈ 4.27 µM)	–	–
CCCCCC(O)C1=CC(=O)c2c(O)ccc(O)c2C1=O (centres unmarked) [2-(1-hydroxyhexyl)-5,8-dihydroxy-1,4-naphthoquinone]	0.03 (≈ 0.103 µM)	1.1 (≈ 3.79 µM)	0.02 (≈ 0.0689 µM)	–	–
CCCCCC(O)C1=CC(=O)c2c(OC)ccc(OC)c2C1=O (centres unmarked) [2-(1-hydroxyhexyl)-5,8-dimethoxy-1,4-naphthoquinone]	0.3 (≈ 0.942 µM)	0.9 (≈ 2.83 µM)	0.6 (≈ 1.88 µM)	–	–
CCCCCCCC(O)C1=CC(=O)c2c(O)ccc(O)c2C1=O (centres unmarked) [2-(1-hydroxyoctyl)-5,8-dihydroxy-1,4-naphthoquinone]	0.07 (≈ 0.22 µM)	0.4 (≈ 1.26 µM)	0.2 (≈ 0.628 µM)	–	–
CCCCCCCC(O)C1=CC(=O)c2c(OC)ccc(OC)c2C1=O (centres unmarked) [2-(1-hydroxyoctyl)-5,8-dimethoxy-1,4-naphthoquinone]	1 (≈ 2.89 µM)	7.5 (≈ 21.6 µM)	2.1 (≈ 6.06 µM)	–	–
CCCCC(O)C1=CC(=O)c2c(O)ccc(O)c2C1=O (centres unmarked) [2-(1-hydroxypentyl)-5,8-dihydroxy-1,4-naphthoquinone]	0.04 (≈ 0.145 µM)	0.5 (≈ 1.81 µM)	0.08 (≈ 0.29 µM)	–	–
CCCCC(O)C1=CC(=O)c2c(OC)ccc(OC)c2C1=O (centres unmarked) [2-(1-hydroxypentyl)-5,8-dimethoxy-1,4-naphthoquinone]	0.1 (≈ 0.329 µM)	6.4 (≈ 21 µM)	1.1 (≈ 3.61 µM)	–	–
COc1cccc2c1C(=O)c1c(O)c3c(c(O)c1C2=O)C[C@@](O)(C(=O)CO)C[C@@H]3O[C@H]1C[C@H](N)[C@H](O)[C@H](C)O1 [Doxorubicin, reference compound]	–	–	–	44.4	230

— US5696276A, “Process for preparing 5,8-dihydroxynaphthoquinone derivatives, novel 5,8-dihydroxynaphthoquinone derivatives and their use as anticancer agent” (Kuhnil Pharmaceutical Co., Ltd., priority 1993, dated 1997)
